Test system: TFEB
Assay: TFEB nuclear translocation assay, HeLa wt cells
Format: cell-based
Conditions: Homo sapiens, HeLa, 2 h, 2 hrs compound treatment, Table 1 does not say HeLa wt or TRPML1 KO
Summary of the method: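 Read-out is the ratio of TFEB immunofluorescence in the nucleus to that in a ring just outside it, measured by automated imaging. HeLa wt cells received compounds for 2 hrs at 37° C before fixation and staining; AC50 values come from this ratio.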

Structure (SMILES)	AC50
CN(C)S(=O)(=O)c1ccc(S(=O)(=O)Nc2ccccc2N2CCN(C(=O)C3CC3(C)C)CC2)cc1 (stereo not shown) [Compound A-427, N4-{2-[4-(2,2-dimethylcyclopropanecarbonyl)piperazin-1-yl]phenyl}-N1,N1-dimethylbenzene-1,4-disulfonamide]	2010 to 8000 nM
CC(C(=O)N1CCN(c2ccccc2NS(=O)(=O)c2ccc(S(=O)(=O)N(C)C)cc2)CC1)C(C)(C)C (stereo not shown) [Compound A-428, N1,N1-dimethyl-N4-{2-[4-(2,3,3-trimethylbutanoyl)piperazin-1-yl]phenyl}benzene-1,4-disulfonamide]	≤ 2000 nM
CN(C)S(=O)(=O)c1ccc(S(=O)(=O)Nc2ccccc2N2CCN(C(=O)C3CC(F)(F)C3)CC2)cc1 [Compound A-429, N4-{2-[4-(3,3-difluorocyclobutanecarbonyl)piperazin-1-yl]phenyl}-N1,N1-dimethylbenzene-1,4-disulfonamide]	2010 to 8000 nM
CN(C)S(=O)(=O)c1ccc(S(=O)(=O)Nc2ccccc2N2CCN(C(=O)C3(CF)CCC3)CC2)cc1 [Compound A-430, N4-(2-{4-[1-(fluoromethyl)cyclobutanecarbonyl]piperazin-1-yl}phenyl)-N1,N1-dimethylbenzene-1,4-disulfonamide]	2010 to 8000 nM
COC(C)(C)C(=O)N1CCN(c2ccccc2NS(=O)(=O)c2ccc(S(=O)(=O)N(C)C)cc2)CC1 [Compound A-431, N4-{2-[4-(2-methoxy-2-methylpropanoyl)piperazin-1-yl]phenyl}-N1,N1-dimethylbenzene-1,4-disulfonamide]	2010 to 8000 nM
CN(C)S(=O)(=O)c1ccc(S(=O)(=O)Nc2ccccc2N2CCN(C(=O)C(C)(C)F)CC2)cc1 [Compound A-432, N4-{2-[4-(2-fluoro-2-methylpropanoyl)piperazin-1-yl]phenyl}-N1,N1-dimethylbenzene-1,4-disulfonamide]	2010 to 8000 nM
CN(C)S(=O)(=O)c1ccc(S(=O)(=O)Nc2ccccc2N2CCC(C3(O)CC3)CC2)cc1 [Compound A-433, N4-{2-[4-(1-hydroxycyclopropyl)piperidin-1-yl]phenyl}-N1,N1-dimethylbenzene-1,4-disulfonamide]	2010 to 8000 nM
COCC1CCN(c2ccccc2NS(=O)(=O)c2ccc(S(=O)(=O)N(C)C)cc2)CC1 [Compound A-434, N4-{2-[4-(methoxymethyl)piperidin-1-yl]phenyl}-N1,N1-dimethylbenzene-1,4-disulfonamide]	≤ 2000 nM
CN(C)S(=O)(=O)c1ccc(S(=O)(=O)Nc2ccccc2N2CCC(C3CCCCO3)CC2)cc1 (stereo not shown) [Compound A-435, N1,N1-dimethyl-N4-{2-[4-(oxan-2-yl)piperidin-1-yl]phenyl}benzene-1,4-disulfonamide]	≤ 2000 nM
CN(C)S(=O)(=O)c1ccc(S(=O)(=O)Nc2ccccc2N2CCC(C)(CO)CC2)cc1 [Compound A-436, N4-{2-[4-(hydroxymethyl)-4-methylpiperidin-1-yl]phenyl}-N1,N1-dimethylbenzene-1,4-disulfonamide]	2010 to 8000 nM
CN(C)S(=O)(=O)c1ccc(S(=O)(=O)Nc2ccccc2N2CCC(C3COCCO3)CC2)cc1 (stereo not shown) [Compound A-437, N4-{2-[4-(1,4-dioxan-2-yl)piperidin-1-yl]phenyl}-N1,N1-dimethylbenzene-1,4-disulfonamide]	2010 to 8000 nM
COCC1(C)CCN(c2ccccc2NS(=O)(=O)c2ccc(S(=O)(=O)N(C)C)cc2)CC1 [Compound A-438, N4-{2-[4-(methoxymethyl)-4-methylpiperidin-1-yl]phenyl}-N1,N1-dimethylbenzene-1,4-disulfonamide]	≤ 2000 nM
CN1CC2(CCN(c3ccc(Cl)cc3NS(=O)(=O)c3ccc4c(c3)CCC4)CC2)c2ccc(F)cc21 [Compound A-439, N-(5-chloro-2-{6-fluoro-1-methyl-1,2-dihydrospiro[indole-3,4′-piperidin]-1′-yl}phenyl)-2,3-dihydro-1H-indene-5-sulfonamide]	≤ 2000 nM
CN(C)S(=O)(=O)c1ccc(S(=O)(=O)Nc2ccccc2N2CCC3(CC2)COC(C)(C)C3)cc1 [Compound A-440, N4-(2-{3,3-dimethyl-2-oxa-8-azaspiro[4.5]decan-8-yl}phenyl)-N1,N1-dimethylbenzene-1,4-disulfonamide]	≤ 2000 nM
CN1CCc2ccccc2C12CCN(c1ccccc1NS(=O)(=O)c1ccc(S(C)(=O)=O)cc1)CC2 [Compound A-441, N-(2-(2-methyl-3,4-dihydro-2H-spiro[isoquinoline-1,4′-piperidin]-1′-yl)phenyl)-4-(methylsulfonyl)benzenesulfonamide]	2010 to 8000 nM
CN(C)S(=O)(=O)c1ccc(S(=O)(=O)Nc2ccccc2N2CCC3(CC2)CN(C(=O)OC2CCOC2)c2cc(F)ccc23)cc1 (stereo not shown) [Compound A-442, oxolan-3-yl 1′-{2-[4-(dimethylsulfamoyl)benzenesulfonamido]phenyl}-6-fluoro-1,2-dihydrospiro[indole-3,4′-piperidine]-1-carboxylate]	≤ 2000 nM
CC(Nc1ccccc1N1CCC(c2ccc(Cl)cc2F)CC1)c1ccc(S(=O)(=O)N(C)C)cc1 (stereo not shown) [Compound A-443, 4-[1-({2-[4-(4-chloro-2-fluorophenyl)piperidin-1-yl]phenyl}amino)ethyl]-N,N-dimethylbenzene-1-sulfonamide]	2010 to 8000 nM

Structure (SMILES)	AC50
COC1(C(=O)N2CCN(c3ccccc3NS(=O)(=O)c3ccc(S(=O)(=O)N(C)C)cc3)CC2)CCCC1 [Compound A-444, N4-{2-[4-(1-methoxycyclopentanecarbonyl)piperazin-1-yl]phenyl}-N1,N1-dimethylbenzene-1,4-disulfonamide]	≤ 2000 nM
COC1(C(=O)N2CCN(c3ccccc3NS(=O)(=O)c3ccc(S(=O)(=O)N(C)C)cc3)CC2)CCCCC1 [Compound A-445, N4-{2-[4-(1-methoxycyclohexanecarbonyl)piperazin-1-yl]phenyl}-N1,N1-dimethylbenzene-1,4-disulfonamide]	≤ 2000 nM
CN(C)S(=O)(=O)c1ccc(S(=O)(=O)Nc2ccccc2N2CCN(C(=O)C(C)(F)F)CC2)cc1 [Compound A-446, N4-{2-[4-(2,2-difluoropropanoyl)piperazin-1-yl]phenyl}-N1,N1-dimethylbenzene-1,4-disulfonamide]	2010 to 8000 nM
CN(C)S(=O)(=O)c1ccc(S(=O)(=O)Nc2ccccc2N2CCN(C(=O)N3CC4CC3C4)CC2)cc1 [Compound A-447]	2010 to 8000 nM
CN(C)S(=O)(=O)c1ccc(S(=O)(=O)Nc2ccccc2N2CCN(C(=O)C3(C)CCCCO3)CC2)cc1 (stereo not shown) [Compound A-448, N1,N1-dimethyl-N4-{2-[4-(2-methyloxane-2-carbonyl)piperazin-1-yl]phenyl}benzene-1,4-disulfonamide]	≤ 2000 nM
CN(C)S(=O)(=O)c1ccc(S(=O)(=O)Nc2ccccc2N2CCN(C3CCCOC3)CC2)cc1 (stereo not shown) [Compound A-450, N1,N1-dimethyl-N4-{2-[4-(oxan-3-yl)piperazin-1-yl]phenyl}benzene-1,4-disulfonamide]	8010 to 9990 nM
CCC1(N2CCOCC2)CCN(c2ccccc2NS(=O)(=O)c2ccc(S(=O)(=O)N(C)C)cc2)CC1 [Compound A-451, N4-{2-[4-ethyl-4-(morpholin-4-yl)piperidin-1-yl]phenyl}-N1,N1-dimethylbenzene-1,4-disulfonamide]	≤ 2000 nM
CCC1(N2CCCC2)CCN(c2ccccc2NS(=O)(=O)c2ccc(S(=O)(=O)N(C)C)cc2)CC1 [Compound A-452, N4-{2-[4-ethyl-4-(pyrrolidin-1-yl)piperidin-1-yl]phenyl}-N1,N1-dimethylbenzene-1,4-disulfonamide]	8010 to 9990 nM
CN(C)S(=O)(=O)c1ccc(S(=O)(=O)Nc2ccccc2N2CCN(C3CCCC3)CC2)cc1 [Compound A-453, N4-[2-(4-cyclopentylpiperazin-1-yl)phenyl]-N1,N1-dimethylbenzene-1,4-disulfonamide]	2010 to 8000 nM
COC1(C)CCN(c2ccccc2NS(=O)(=O)c2ccc(S(=O)(=O)N(C)C)cc2)CC1 [Compound A-454, N4-[2-(4-methoxy-4-methylpiperidin-1-yl)phenyl]-N1,N1-dimethylbenzene-1,4-disulfonamide]	≤ 2000 nM
CCC(C)(C)N1CCN(c2ccccc2NS(=O)(=O)c2ccc(S(=O)(=O)N(C)C)cc2)CC1 [Compound A-455, N1,N1-dimethyl-N4-{2-[4-(2-methylbutan-2-yl)piperazin-1-yl]phenyl}benzene-1,4-disulfonamide]	2010 to 8000 nM
CC(N1CCN(c2ccccc2NS(=O)(=O)c2ccc(S(=O)(=O)N(C)C)cc2)CC1)C(F)(F)F (stereo not shown) [Compound A-456, N1,N1-dimethyl-N4-{2-[4-(1,1,1-trifluoropropan-2-yl)piperazin-1-yl]phenyl}benzene-1,4-disulfonamide]	≤ 2000 nM
CC(C)Oc1ccc(S(=O)(=O)Nc2cccc(Cl)c2N2CCOCC2)cc1 [Compound A-457, N-[3-chloro-2-(morpholin-4-yl)phenyl]-4-(propan-2-yloxy)benzene-1-sulfonamide]	2010 to 8000 nM
COC1(C(=O)N2CCN(c3ccccc3NS(=O)(=O)c3ccc(S(=O)(=O)N(C)C)cc3)CC2)CCC1 [Compound A-458, N4-{2-[4-(1-methoxycyclobutanecarbonyl)piperazin-1-yl]phenyl}-N1,N1-dimethylbenzene-1,4-disulfonamide]	2010 to 8000 nM
CN(C)S(=O)(=O)c1ccc(S(=O)(=O)Nc2ccccc2N2CCN(C(=O)C3CCCC3(F)F)CC2)cc1 (stereo not shown) [Compound A-459, N4-{2-[4-(2,2-difluorocyclopentanecarbonyl)piperazin-1-yl]phenyl}-N1,N1-dimethylbenzene-1,4-disulfonamide]	2010 to 8000 nM
CN(C)S(=O)(=O)c1ccc(S(=O)(=O)Nc2ccccc2N2CCN(C(=O)C34CCC(CC3)C4)CC2)cc1 [Compound A-460, N4-[2-(4-{bicyclo[2.2.1]heptane-1-carbonyl}piperazin-1-yl)phenyl]-N1,N1-dimethylbenzene-1,4-disulfonamide]	≤ 2000 nM
CN(C)S(=O)(=O)c1ccc(S(=O)(=O)Nc2ccccc2N2CCN(C(=O)C3(F)CC3)CC2)cc1 [Compound A-461, N4-{2-[4-(1-fluorocyclopropanecarbonyl)piperazin-1-yl]phenyl}-N1,N1-dimethylbenzene-1,4-disulfonamide]	2010 to 8000 nM

Reference: patent US20230104936A1, “TRPML MODULATORS” (Casma Therapeutics, Inc., priority 2019, published 2023)
